The source of these data is patent US11427548B2 (Arvinas Operations, Inc., priority 2015, dated 2022).

This assay has as its target T1, Androgen Receptor (Homo sapiens, UniProt P10275).
T1 construct: endogenous in cells; host or cells: VCaP cells
T1 sequence (P10275 1-920): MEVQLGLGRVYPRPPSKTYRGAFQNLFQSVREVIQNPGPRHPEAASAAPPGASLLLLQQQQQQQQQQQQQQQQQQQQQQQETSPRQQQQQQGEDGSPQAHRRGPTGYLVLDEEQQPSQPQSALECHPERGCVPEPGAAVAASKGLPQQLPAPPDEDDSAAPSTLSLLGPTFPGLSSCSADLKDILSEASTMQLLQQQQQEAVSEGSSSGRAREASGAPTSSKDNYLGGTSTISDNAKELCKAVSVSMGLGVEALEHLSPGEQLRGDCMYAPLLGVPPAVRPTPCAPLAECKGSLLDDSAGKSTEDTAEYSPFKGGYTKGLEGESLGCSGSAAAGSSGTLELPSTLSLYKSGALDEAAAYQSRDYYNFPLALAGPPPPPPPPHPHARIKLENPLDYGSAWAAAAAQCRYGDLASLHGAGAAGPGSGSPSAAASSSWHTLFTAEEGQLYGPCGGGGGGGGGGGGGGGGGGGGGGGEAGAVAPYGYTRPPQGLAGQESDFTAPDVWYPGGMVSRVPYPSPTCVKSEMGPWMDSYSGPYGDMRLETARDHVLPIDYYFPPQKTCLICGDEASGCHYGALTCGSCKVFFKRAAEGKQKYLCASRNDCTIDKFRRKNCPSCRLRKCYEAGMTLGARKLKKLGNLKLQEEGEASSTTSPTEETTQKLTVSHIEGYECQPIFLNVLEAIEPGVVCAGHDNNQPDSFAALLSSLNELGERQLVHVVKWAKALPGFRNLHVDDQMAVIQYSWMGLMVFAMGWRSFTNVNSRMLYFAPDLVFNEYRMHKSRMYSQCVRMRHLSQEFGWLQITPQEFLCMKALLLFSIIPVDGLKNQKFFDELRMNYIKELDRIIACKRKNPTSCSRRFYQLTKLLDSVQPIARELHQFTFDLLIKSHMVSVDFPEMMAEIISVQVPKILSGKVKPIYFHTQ
The assay can be described thus: Androgen Receptor ELISA assay (PathScan AR ELISA) in VCaP cells: AR degradation, Dmax and DC50. Type of assay: cell-based. The gist of the method: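 VCaP cells in phenol red-free RPMI with 5% charcoal-stripped FBS were grown at least 3 days, then given compound as 7 half-log doses in 0.1% DMSO with 0.1 nM R1881 for 24 h. Lysates went into a sandwich AR ELISA with TMB read at 450 nm.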
On the technique in general: In an ELISA, binding on a coated surface is turned into a signal by an enzyme label.

[1] abbreviates: read-out: VCaP DC50; VCaP cells; Table 34.
The mark [2] stands for this setting: VCaP cells; Table 34; read-out: VCaP DC50.
The mark [3] stands for this setting: VCaP, VCaP cells; Table 34; read-out: VCaP Dmax (%).

Where two headings read alike, the source gives them in different places.

Broadly, the Dmax is the greatest extent of degradation seen. For orientation: DC50 means the concentration at which degradation of the target reaches its halfway point. Turning to `Cc1ncsc1-c1ccc(CNC(=O)[C@@H]2C[C@@H](O)CN2C(=O)[C@@H](NC(=O)COCCC2CCN(CCOc3ccc(N4C(=S)N(c5ccc(C#N)c(C(F)(F)F)c5)C(=O)C4(C)C)cc3)CC2)C(C)(C)C)cc1` [Example 318], the greatest degradation seen (Dmax) (VCaP, read-out: VCaP Dmax (%)) fell in the range of 26 to 50%. Moreover, the DC50 under setting [1] fell in the range of 51 to 500 nM.

Consider `Cc1ncsc1-c1ccc(CNC(=O)[C@@H]2C[C@@H](O)CN2C(=O)[C@@H](NC(=O)COCC#CCOCCOc2ccc(N3C(=S)N(c4ccc(C#N)c(C(F)(F)F)c4)C(=O)C3(C)C)cc2)C(C)(C)C)cc1` [Example 319], for which the Dmax (VCaP, read-out: VCaP Dmax (%)) was in the range of 26 to 50%. The DC50 under setting [1] is less than 50 nM.

For the compound `Cc1ncsc1-c1ccc(CNC(=O)[C@@H]2C[C@@H](O)CN2C(=O)[C@@H](NC(=O)COCCCCOCCCCOc2cccc(N3C(=S)N(c4ccc(C#N)c(C(F)(F)F)c4)C(=O)C3(C)C)c2)C(C)(C)C)cc1` [Example 320], the Dmax (VCaP, read-out: VCaP Dmax (%)) fell in the range of 26 to 50%. Moreover, the DC50 under setting [1] is less than 50 nM.

As for `Cc1ncsc1-c1ccc(CNC(=O)[C@@H]2C[C@@H](O)CN2C(=O)[C@@H](NC(=O)COCCCOCCCCOc2cccc(N3C(=S)N(c4ccc(C#N)c(C(F)(F)F)c4)C(=O)C3(C)C)c2)C(C)(C)C)cc1` [Example 321], under “VCaP, read-out: VCaP Dmax (%)”, the Dmax fell in the range of 26 to 50%. In addition, under setting [1], the DC50 was less than 50 nM.

As to `COc1cc(N2C(=O)C(C)(C)N(c3ccc(OCCOc4ccc(OCC(=O)N[C@H](C(=O)N5C[C@H](O)C[C@H]5C(=O)NCc5ccc(-c6scnc6C)cc5)C(C)(C)C)cc4)c(F)c3)C2=S)ccc1C#N` [Example 323], the 50% degradation concentration (DC50) under setting [2] was less than 50 nM. For the same compound, the Dmax under setting [3] fell in the range of 51 to 70%.

Regarding `Cc1ncsc1-c1ccc(CNC(=O)[C@@H]2C[C@@H](O)CN2C(=O)[C@@H](NC(=O)CCN2CCC(OCCOc3ccc(N4C(=S)N(c5ccc(C#N)c(C(F)(F)F)c5)C(=O)C4(C)C)cc3)CC2)C(C)(C)C)cc1` [Example 324], under “VCaP, read-out: VCaP Dmax (%)”, the Dmax lay within 26 to 50%. Also, under setting [1], the DC50 was 51 to 500 nM.

Consider `Cc1ncsc1-c1ccc(CNC(=O)[C@@H]2C[C@@H](O)CN2C(=O)[C@@H](NC(=O)COC/C=C\COCCCCOc2ccc(N3C(=S)N(c4ccc(C#N)c(C(F)(F)F)c4)C(=O)C3(C)C)cc2)C(C)(C)C)cc1` [Example 325], for which the Dmax (VCaP, read-out: VCaP Dmax (%)) was in the range of 26 to 50%. Besides, the DC50 under setting [1] was less than 50 nM.

Regarding `Cc1ncsc1-c1ccc(CNC(=O)[C@@H]2C[C@@H](O)CN2C(=O)[C@H](C(C)C)N2CC(OCCCOCCCOc3ccc(N4C(=S)N(c5ccc(C#N)c(C(F)(F)F)c5)C(=O)C4(C)C)cc3)=CC2=O)cc1` [Example 329], the Dmax (VCaP, read-out: VCaP Dmax (%)) is 26 to 50%. Also, under setting [1], the DC50 is less than 50 nM.

Turning to `Cc1ncsc1-c1ccc(CNC(=O)[C@@H]2C[C@@H](O)CN2C(=O)[C@@H](NC(=O)COCCCOCCCCNc2ccc(N3C(=S)N(c4ccc(C#N)c(C(F)(F)F)c4)C(=O)C3(C)C)cc2)C(C)(C)C)cc1` [Example 333], the Dmax (VCaP, read-out: VCaP Dmax (%)) was in the range of 51 to 70%. Also, the 50% degradation concentration (DC50) under setting [1] was less than 50 nM.

Turning to `CC(C)(C)[C@H](NC(=O)COCCCOCCCCOc1ccc(N2C(=S)N(c3ccc(C#N)c(Br)c3)C(=O)C2(C)C)cc1F)C(=O)N1C[C@H](O)C[C@H]1C(=O)NCc1ccc(-c2cnco2)cc1` [Example 334], under setting [2], the DC50 was less than 50 nM. Moreover, the Dmax under setting [3] is more than 71%.

Take `CC(C)(C)[C@H](NC(=O)COCCCOCCCCOc1ccc(N2C(=S)N(c3ccc(C#N)c(Cl)c3)C(=O)C2(C)C)c(F)c1)C(=O)N1C[C@H](O)C[C@H]1C(=O)NCc1ccc(-c2cnco2)cc1` [Example 336]: the Dmax (VCaP, read-out: VCaP Dmax (%)) is more than 71%. Also, under setting [1], the 50% degradation concentration (DC50) is less than 50 nM.

In the case of `CC(C)(C)[C@H](NC(=O)COCCCOCCCCOc1ccc(N2C(=S)N(c3ccc(C#N)c(Cl)c3)C(=O)C2(C)C)cc1)C(=O)N1C[C@H](O)C[C@H]1C(=O)NCc1ccc(-c2cnco2)cc1` [Example 337], the Dmax (VCaP, read-out: VCaP Dmax (%)) is more than 71%. For the same compound, the DC50 under setting [1] is less than 50 nM.

With `Cc1ncoc1-c1ccc(CNC(=O)[C@@H]2C[C@@H](O)CN2C(=O)[C@@H](NC(=O)COCCCOCCCCOc2ccc(N3C(=S)N(c4cnc(C#N)c(Cl)c4)C(=O)C3(C)C)cc2)C(C)(C)C)cc1` [Example 338], under setting [2], the DC50 is less than 50 nM. For the same compound, the Dmax under setting [3] was 51 to 70%.
